In US20230331675A1, “AROMATIC ETHYLENE COMPOUND AND PREPARATION METHOD THEREFOR, AND INTERMEDIATE, PHARMACEUTICAL COMPOSITION, AND APPLICATION THEREOF” (GUANGZHOU MAXINOVEL PHARMACEUTICALS CO., LTD., priority 2020, published 2023):

How the values were obtained:
[1] = Pharmacokinetic experiment in mice; format: in vivo; conditions: CD1 male mice, intravenous 2 mg/kg; for F: oral 10 mg/kg by gavage; for AUC(0-inf) / Cmax: mouse, plasma, oral 10 mg/kg by gavage (route of value not stated)
Description: Effect embodiment 2: Pharmacokinetic experiment in mice
Reagents: Acetonitrile, formic acid, methanol (HPLC grade) were purchased from Sigma-Aldrich (USA.), and pure water was purchased from Hangzhou Wahaha Group Co., Ltd. (Hangzhou, China). Other chemical reagents were all analytically pure reagents.
Experimental instruments: liquid chromatograph mass spectrometer (UPLC-MS/MS, composed of AB SCIEX TRIPLE QUAD 6500 triple quadrupole mass spectrometer, Shimadzu high performance liquid phase system. The Analyst 1.6.2 data acquisition and processing system was adopted).
Experimental animals: 6 CD1 male mice, 29-30 g before administration, were purchased from Shanghai Jihui Experimental Animal Breeding Co., Ltd., and the animal certificate number is SCXK(SH) 2017-0012 20170012001403. Before the experiment, the animals should be kept for at least 3 days to adapt to the environment. Throughout the experiment, the animals had free access to food and water.
1) Preparation of a mother liquor: A certain amount of the test drug was weighed in a clean sample bottle, then dimethyl sulfoxide was added, vortexed thoroughly for 1 min, and sonicated for 5 min to give a 4 mg/mL solution.
Drug preparation for intravenous administration: A certain amount of the above solution was taken and placed in a clean sample bottle, then polyethylene glycol-15 hydroxystearate was added, vortexed thoroughly for 1 min, then normal saline was added, and the mixture was continued vortexing for 1 min to give […] solution A.
Drug preparation for oral administration: A certain amount of the test drug was weighed and placed in a clean sample bottle, then a pre-prepared vehicle “10% (w/v) polyoxyethylene 40 hydrogenated castor+20% (w/v) sulfobutyl ether β-cyclodextrin+70% water” was added, vortexed thoroughly for 1 min, magnetically stirred for 20-25 min, and sonicated for 10 min to give 1 mg/mL solution B.
2) Intravenous administration: 3 mice were injected with 2 mg/kg (5 mL/kg) solution A through the tail vein.
Oral administration: 3 mice were given 10 mg/kg (10 mL/kg) solution B by gavage.
3) Collection and storage of plasma samples: Blood samples were collected from the orbital venous plexus of mice according to predetermined time points (5 minutes, 15 minutes, 30 minutes, 1 hour, 2 hours, 4 hours, 8 hours and 24 hours). 25 μL of blood was placed in EDTA-K2 anticoagulant tubes (placed on wet ice), and 20 μL of blood was immediately diluted with 60 μL of water and vortexed until evenly mixed. Plasma was stored in a −70° C. refrigerator for long-term storage until sample analysis.
4) Analysis of plasma samples: 200 μL of acetonitrile (containing 100 ng/mL internal standard) was added to 25 μL of plasma sample, vortexed for 10 minutes, and centrifuged at 5800 rpm for 10 minutes. 70 μL of supernatant was transferred to a 96-well injection plate. 1 μL of plasma sample was analyzed by LC-MS/MS.
5) The pharmacokinetic parameters were calculated according to the test results.

PD-1/PD-L1 = PD-1/PD-L1 (Homo sapiens (Human), UniProt Q9NZQ7); assay: Homogeneous time-resolved fluorescence (HTRF) binding assay; conditions: CisBio kit, read-out: IC50 of compounds binding to PD-1/PD-L1
In short: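 Compound at 10 concentrations (3-fold steps) preincubated with PD-L1 and PD-1 at room temperature for 30 minutes. Anti-tag1-Eu and anti-tag2-XL665 then added, with 1 to 24 hours further incubation at room temperature before HTRF readout of binding.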

Sequence of PD-1/PD-L1 (Q9NZQ7 19-238): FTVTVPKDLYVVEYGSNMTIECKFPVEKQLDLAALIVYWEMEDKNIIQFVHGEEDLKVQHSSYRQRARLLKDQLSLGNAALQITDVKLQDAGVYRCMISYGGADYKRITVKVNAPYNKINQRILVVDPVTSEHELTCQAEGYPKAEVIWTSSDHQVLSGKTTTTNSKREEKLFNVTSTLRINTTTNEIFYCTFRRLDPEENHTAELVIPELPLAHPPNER

Row | Structure (SMILES) | F [1] | AUC(0-inf) [1] | Cmax [1] | IC50 (PD-1/PD-L1)
1 | COc1cc(/C=C/c2cccc(-c3ccccc3)c2C)c(C(F)(F)F)cc1CN1CCCC[C@H]1C(=O)O [drawing 201] | 72.4% | 40600 ng·h/mL | 1870 ng/mL | –
2 | [2H]C([2H])([2H])Oc1cc(/C=C/c2cccc(-c3ccccc3)c2C#N)c(CN2CCCC[C@H]2C(=O)O)cc1Cl [Compound 52, (S,E)-1-(5-Chloro-2-(2-(2-cyano-[1,1′-biphenyl]-3-yl)vinyl)-4-(methoxy-d3)benzyl)piperidine-2-carboxylic acid] | – | – | – | > 10000 nM
3 | COc1cc(/C=C/c2cccc(-c3ccccc3)c2C)c(Cl)cc1CN1CCCC[C@H]1C(=O)O [Compound 58, (S,E)-1-(5-Chloro-2-methoxy-4-(2-(2-methyl-[1,1′-biphenyl]-3-yl)vinyl)benzyl)piperidine-2-carboxylic acid] | – | – | – | 6.8 nM
4 | COCc1cc(/C=C/c2cccc(-c3ccccc3)c2C#N)c(C(F)(F)F)cc1CN1CCOC[C@H]1C(=O)O [Compound 50, (S,E)-4-(4-(2-(2-Cyano-[1,1′-biphenyl]-3-yl)vinyl)-2-(methoxymethyl)-5-trifluoromethylbenzyl)morpholine-3-carboxylic acid] | – | – | – | 141 nM
5 | Cc1c(/C=C/c2cc(OCc3ccnc(I)c3)c(CN3CCCC[C@H]3C(=O)O)cc2C(F)(F)F)cccc1-c1ccccc1 [Compound 81, (S,E)-1-(2-((2-Iodopyridin-4-yl)methoxy)-4-(2-(2-methyl-[1,1′-biphenyl]-3-yl)vinyl)-5-(trifluoromethyl)benzyl)piperidine-2-carboxylic acid] | – | – | – | 2.13 nM
6 | Cc1cc(OCCCCC#N)c(CN2CCCC[C@H]2C(=O)O)cc1/C=C/c1cccc(-c2ccccc2)c1C#N [Compound 39, (S,E)-1-(5-(2-(2-Cyano-[1,1′-biphenyl]-3-yl)vinyl)-2-(4-cyanobutoxy)-4-methylbenzyl)piperidine-2-carboxylic acid] | – | – | – | 172 nM
7 | Cc1c(/C=C/c2cc(OCCCF)c(CN3CCCC[C@H]3C(=O)O)cc2C(F)(F)F)cccc1-c1ccccc1 [Compound 86, (S,E)-1-(2-(3-Fluoropropoxy)-4-(2-(2-methyl-[1,1′-biphenyl]-3-yl)vinyl)-5-(trifluoromethyl)benzyl)piperidine-2-carboxylic acid] | – | – | – | 3.58 nM

Results, then the molecule that gave them:

Row | F [1] | AUC(0-inf) [1] | Cmax [1] | IC50 (PD-1/PD-L1) | Structure (SMILES)
8 | 74.1% | 8580 ng·h/mL | 1260 ng/mL | – | Cc1cc(/C=C/c2nccc(-c3ccccc3)c2C#N)c(Cl)cc1CN1CCCC[C@H]1C(=O)O [reference compound]
9 | 69.7% | 7620 ng·h/mL | 1400 ng/mL | – | COc1cc(/C=C/c2cccc(-c3ccccc3)c2C#N)c(C(F)(F)F)cc1CN1CCCC[C@H]1C(=O)O [drawing 203]
10 | 16.4% | 1000 ng·h/mL | 254 ng/mL | – | COc1cc(/C=C/c2nccc(-c3ccccc3)c2C#N)c(C(F)(F)F)cc1CN1CCCC[C@H]1C(=O)O [reference compound]
11 | 80.6% | 16800 ng·h/mL | 2130 ng/mL | – | Cc1cc(/C=C/c2cccc(-c3ccccc3)c2C#N)c(Cl)cc1CN1CCCC[C@H]1C(=O)O [drawing 205]
12 | 23.6% | 2300 ng·h/mL | 673 ng/mL | – | COc1cc(/C=C/c2nccc(-c3ccccc3)c2C)c(C(F)(F)F)cc1CN1CCCC[C@H]1C(=O)O [reference compound]
